Assays:
Clostridioides difficile = test: Antimicrobial activity against clinical strain Clostridium difficile assessed as reduction in bacterial growth at 0.195 to 100 ug/ml by disk diffusion method; assay type: organism-based; settings: in vivo, dose 0.195-100 µg/ml
Escherichia coli [1] = test: Antimicrobial activity against Escherichia coli ATCC 25922 assessed as reduction in bacterial growth at 0.195 to 100 ug/ml by serial dilution method; assay type: organism-based; settings: in vivo, dose 0.195-100 µg/ml
[2] = Antimicrobial activity against clinical strain Bifidobacterium assessed as reduction in bacterial growth at 0.195 to 100 ug/ml by disk diffusion method; settings: dose 0.195-100 µg/ml
[3] = Toxicity in mouse assessed as lethality at 30 mg/kg, ip; assay type: organism-based; settings: in vivo
Salmonella enterica = test: Antimicrobial activity against Salmonella enterica ATCC 51957 assessed as reduction in bacterial growth at 0.195 to 100 ug/ml by serial dilution method; assay type: organism-based; settings: in vivo, dose 0.195-100 µg/ml
Hoylesella loescheii = test: Antimicrobial activity against Prevotella loescheii ATCC 15930 assessed as reduction in bacterial growth at 0.195 to 100 ug/ml by disk diffusion method; assay type: organism-based, DSM 19665 = JCM 12249 = ATCC 15930; settings: in vivo, dose 0.195-100 µg/ml
[4] = molecular target: T1, 5-hydroxytryptamine receptor 1A (Homo sapiens, UniProt P08908); test: Binding affinity to 5-HT1A (unknown origin)
T1 sequence (P08908 whole entry): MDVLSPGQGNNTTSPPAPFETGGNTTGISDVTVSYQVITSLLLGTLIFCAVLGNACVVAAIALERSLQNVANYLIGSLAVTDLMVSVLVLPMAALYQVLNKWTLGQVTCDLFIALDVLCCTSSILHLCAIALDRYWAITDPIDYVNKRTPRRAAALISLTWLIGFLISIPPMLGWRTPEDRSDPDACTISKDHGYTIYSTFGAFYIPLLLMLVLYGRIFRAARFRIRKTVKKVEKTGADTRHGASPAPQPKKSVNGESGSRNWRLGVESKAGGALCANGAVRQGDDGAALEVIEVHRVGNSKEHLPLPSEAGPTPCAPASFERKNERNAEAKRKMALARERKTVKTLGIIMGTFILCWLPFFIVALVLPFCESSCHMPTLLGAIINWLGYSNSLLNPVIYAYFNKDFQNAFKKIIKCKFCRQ

[5] = Toxicity in ip dosed mouse assessed as motor impairment by rotarod test; assay type: organism-based; settings: in vivo
[6] = Toxicity in mouse assessed as lethality at 20 mg/kg, ip; assay type: organism-based; settings: in vivo
Enterococcus faecalis = test: Antimicrobial activity against Enterococcus faecalis ATCC 29212 assessed as reduction in bacterial growth at 0.195 to 100 ug/ml by serial dilution method; assay type: organism-based; settings: in vivo, dose 0.195-100 µg/ml
Bacteroides fragilis = test: Antimicrobial activity against Bacteroides fragilis ATCC 25285 assessed as reduction in bacterial growth at 0.195 to 100 ug/ml by disk diffusion method; assay type: organism-based; settings: in vivo, dose 0.195-100 µg/ml
Staphylococcus aureus [7] = test: Antimicrobial activity against clinical strain Staphylococcus aureus assessed as reduction in bacterial growth at 0.195 to 100 ug/ml by serial dilution method; assay type: organism-based; settings: in vivo, dose 0.195-100 µg/ml
[8] = Protection index, ratio of TD50 for toxicity in ip dosed mouse to ED50 for anticonvulsant activity in ip dosed mouse; assay type: organism-based; settings: in vivo, read-out: PI
Mus musculus = test: Anticonvulsant activity in ip dosed mouse assessed as protection against current-induced seizure by maximal electroshock seizure test; assay type: functional
Staphylococcus aureus [9] = test: Antimicrobial activity against Staphylococcus aureus ATCC 25923 assessed as reduction in bacterial growth at 0.195 to 100 ug/ml by serial dilution method; assay type: organism-based; settings: in vivo, dose 0.195-100 µg/ml
[10] = Toxicity in mouse assessed as lethality at 50 mg/kg, ip; assay type: organism-based; settings: in vivo
Escherichia coli [11] = test: Antimicrobial activity against Escherichia coli ATCC 35218 assessed as reduction in bacterial growth at 0.195 to 100 ug/ml by serial dilution method; assay type: organism-based; settings: in vivo, dose 0.195-100 µg/ml

Structure (SMILES): Cc1ccc(OCCOCCN[C@H](C)CO)c(C)c1
- Activity (Clostridioides difficile): Non-Toxic
- Activity (Escherichia coli [1]): Non-Toxic
- Activity [2]: Non-Toxic
- Activity [3]: Non-Toxic
- Activity (Salmonella enterica): Non-Toxic
- Activity (Hoylesella loescheii): Non-Toxic
- Ki [4]: 4.8 µM
- TD50 [5]: 93.2 mg/kg
- Activity [6]: Non-Toxic
- Activity (Enterococcus faecalis): Non-Toxic
- Activity (Bacteroides fragilis): Non-Toxic
- Activity (Staphylococcus aureus [7]): Non-Toxic
- selectivity ratio [8]: 3.4
- ED50 (Mus musculus): 27.4 mg/kg
- Activity (Staphylococcus aureus [9]): Non-Toxic
- Activity [10]: Non-Toxic
- Activity (Escherichia coli [11]): Non-Toxic

— ChEMBL document CHEMBL4725268, “Anticonvulsant and analgesic in neuropathic pain activity in a group of new aminoalkanol derivatives” (Bioorg Med Chem Lett, 2020)
